Assay results from patent US20040259765A1, “Formulations of non-steroidal anti-inflammatory agents to treat pathologic ocular angiogenesis” (priority 2003, published 2004).

Test system: retinal neovascularization
Test: rat pup model of retinopathy of prematurity (oxygen-induced retinopathy)
Format: in vivo
Conditions: local administration, FIG. 1
Procedure: FIG. 1. […] Anecortave acetate was tested for its angiostatic efficacy in a rat pup model of retinopathy of prematurity (Penn, at al., Investigative Ophthalmology & Visual Science, “The Effect of an Angiostatic Steroid on Neovascularization in a Rat Model of Retinopathy of Prematurity,” Vol. 42(1):283-290, January 2001). Newborn rat pups were placed in an atmosphere of varying oxygen content. The rats received a single intravitreal injection of vehicle or anecortave acetate (500 μg) upon return to room air (day 14) or 2 days later (day 16). There was significant retinal neovascularization in the rats that received vehicle injections.

CC(=O)OCC(=O)[C@@]1(O)CC[C@H]2[C@@H]3CCC4=CC(=O)CC[C@]4(C)C3=CC[C@@]21C [Anecortave acetate, 4,9(11)-pregnadien-17α,21-diol-3,20dione-21-acetate]
preretinal neovascularization (neovascular score): inhibits
